Data on seven molecules can be found in US4591590A, “Benzhydrylpiperazine derivatives, processes for the preparation thereof and pharmaceutical composition comprising the same” (Fujisawa Pharmaceutical Co., Ltd., priority 1982, dated 1986).

Counter-ions that a name gives are not always drawn.

In the experiment the test system is anaphylactic asthma in guinea-pigs. Kind of experiment: Antagonism to anaphylactic asthma in guinea-pigs (passively sensitized with rabbit anti-egg albumin antiserum, egg albumin aerosol challenge; survival). Format: in vivo, guinea-pig (male Hartley strain). The settings on record: 10 mg/kg, oral, 30 minutes before egg albumin aerosol challenge; dose group 3 or 5 animals (* = 3 guinea-pigs: Examples 10-(5) and 11). As for the experimental part:
Equal volumes of a saline solution of egg albumin (200 mg/ml) and of Freund's Complete Adjuvant were mixed and emulsified. Each male New Zealand white strain rabbits, each weighing 2 to 2.5 kg., received an intramuscular injection of 0.5 ml of the emulsion in the left and right thigh regions. One week later, they received an intradermal injection of 0.25 ml of a saline solution of egg albumin (concentration: 20 mg/ml) in the different four sites of the dorsal skin surface three times every other week. Blood samples were collected from the carotid artery one week after the last injection.
The level of anaphylactic anti-egg albumin antibodies in pools of sera were determined by passive cutaneous anaphylaxis (PCA) reactions using shaven Hartley strain test guinea-pigs.
Antiserum was serially diluted (two fold) in saline and 0.1 ml of each antiserum dilution were injected intradermally into the dorsal skin surface of the test guinea-pigs. 24 hours after intradermal sensitization,Egg albumin-specific PCA reactions were elicited by intravenous injection of 10 mg of egg albumin in 1 ml of 1% Evans blue dye dissolved in saline. Reactions were read and recorded as the highest dilution of serum evoking threshold PCA reactivity (5 mm diameter).
Male Hartley strain guinea-pigs, weighing 305 to 400 g, were used. Animals were sensitized by an intravenous injection of rabbit antiserum against egg albumin (4000 PCA titer) with 0.5 ml/animal. After 24 hours, animals were placed individually in a plastic chamber of 5.3 liter volume. An aerosol of 5% egg albumin solution was sprayed in the chamber at a rate of 0.16 ml/min with a commercial nebulizer. The test compounds were given to the animals orally 30 minutes before the challenge with the egg albumin solution. Each dose group consisted of 3 or 5 animals. The inhibitory effect of the test compounds was determined from the number of surviving animals more than 2 hours after spray of the antigen.

With `COc1ccccc1C(=O)NCCCN1CCN(C(c2ccccc2)c2ccccc2)CC1.Cl.Cl` [Example 10-(2), 1-[3-(2-Methoxybenzoylamino)propyl]-4-benzhydrylpiperazine dihydrochloride], the “Inhibitory effect of anaphylactic asthma in guinea-pig (from number of surviving animals more than 2 hours after spray of the antigen)” value (shortened to “Inhibitory effect of anaphylactic asthma”) is reported as 80%.

As for `O=C(Cn1c(=O)sc2ccccc21)NCCCN1CCN(C(c2ccccc2)c2ccccc2)CC1` [Example 10-(8), 1-[3-[2-(2-Oxo-benzothiazolin-3-yl)acetylamino]propyl]-4-benzhydrylpiperazine], the “Inhibitory effect of anaphylactic asthma” value is reported as 80%.

Consider `Cl.Cl.O=C(NCCCN1CCN(C(c2ccccc2)c2ccccc2)CC1)c1ccccc1` [Example 7, 1-(3-benzoylaminopropyl)-4-benzhydrylpiperazine dihydrochloride], for which the “Inhibitory effect of anaphylactic asthma” value turned out to be 100%.

Regarding `CS(=O)(=O)Nc1cccc(CN2CCN(C(c3ccccc3)c3ccccc3)CC2)n1.Cl.Cl` [Example 13, 1-(6-methanesulfonylaminopyridin-2-ylmethyl)-4-benzhydrylpiperazine dihydrochloride], the “Inhibitory effect of anaphylactic asthma” value was determined as 100%.

`CC(=O)NCCCN1CCN(C(c2ccccc2)c2ccccc2)CC1` [Example 11, 1-(3-acetylaminopropyl)-4-benzhydrylpiperazine]: the “Inhibitory effect of anaphylactic asthma” value was 100%.

Take `CS(=O)(=O)Nc1ccccc1C(=O)NCCCN1CCN(C(c2ccccc2)c2ccccc2)CC1` [Example 10-(5), 1-[3-(2-Methanesulfonylaminobenzoylamino)propyl]-4-benzhydrylpiperazinedihydrochloride]: the “Inhibitory effect of anaphylactic asthma” value is 100%.

With `CC(=O)CCCN1CCN(C(c2ccccc2)c2ccccc2)CC1.O=C(O)/C=C/C(=O)O` [Example 1, 1-(4-oxo-1-pentyl)-4-benzhydrylpiperazine fumarate], the “Inhibitory effect of anaphylactic asthma” value turned out to be 100%.
